According to ChEMBL document CHEMBL1201862, “PubChem BioAssay data set” (2004):
Activity calls are given as the source filed them.

Columns and labels:
[1] = biological target: T1, Zinc finger protein mex-5 (Caenorhabditis elegans, UniProt Q9XUB2); assay: potency of MEX-5 RNA-binding blockers – biochemical, C. elegans, fluorescence polarization, dose response (AID 1960)
T1 sequence (Q9XUB2 whole entry): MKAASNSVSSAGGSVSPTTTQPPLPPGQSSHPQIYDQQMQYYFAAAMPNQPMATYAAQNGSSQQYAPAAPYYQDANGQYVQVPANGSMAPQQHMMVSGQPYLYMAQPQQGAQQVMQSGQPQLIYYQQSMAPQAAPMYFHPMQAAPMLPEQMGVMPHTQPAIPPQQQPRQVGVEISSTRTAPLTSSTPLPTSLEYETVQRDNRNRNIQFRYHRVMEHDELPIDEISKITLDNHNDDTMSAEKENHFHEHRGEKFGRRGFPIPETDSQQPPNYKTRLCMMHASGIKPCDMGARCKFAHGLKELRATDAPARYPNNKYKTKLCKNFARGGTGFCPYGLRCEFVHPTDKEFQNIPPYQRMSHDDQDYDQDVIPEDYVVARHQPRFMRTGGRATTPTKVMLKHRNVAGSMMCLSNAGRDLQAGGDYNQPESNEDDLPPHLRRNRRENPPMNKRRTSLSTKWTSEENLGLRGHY

[2] = biological target: Mucolipin-3 (Homo sapiens, UniProt Q8TDD5); assay: Fluorescence counterscreen assay for […] agonists: dose response cell-based high-throughput screening assay to identify agonists of the transient receptor potential channel ML3 (TRPML3). [Related pubchem assays: 1424, 1448 ]; type: functional
[3] = biological target: T2, RNA-binding protein pos-1 (Caenorhabditis elegans, UniProt G5EF15); assay: disruptors of C. elegans POS-1 RNA interaction – biochemical, fluorescence polarization, dose response (AID 1964);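 note: purified POS-1 fused to maltose binding protein made in E. coli; potency of compounds blocking POS-1 binding to fluorescent RNA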
T2 sequence (G5EF15 whole entry): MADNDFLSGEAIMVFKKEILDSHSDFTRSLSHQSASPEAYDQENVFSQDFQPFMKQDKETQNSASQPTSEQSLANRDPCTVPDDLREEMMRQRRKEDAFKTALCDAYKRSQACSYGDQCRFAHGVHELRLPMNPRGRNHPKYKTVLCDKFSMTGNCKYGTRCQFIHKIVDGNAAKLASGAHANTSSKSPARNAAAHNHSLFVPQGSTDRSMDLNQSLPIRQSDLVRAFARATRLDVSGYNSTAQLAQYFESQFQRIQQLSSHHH

[4] = biological target: T3, Corticotropin-releasing factor receptor 2/Corticotropin-releasing factor-binding protein (Homo sapiens, UniProt P24387+Q13324); assay: activators of CRF receptor 2 with binding protein – uHTS hits, confirmation (AID 602473); type: functional; conditions: read-out: EC50_Mean
T3 sequence (Q13324 whole entry): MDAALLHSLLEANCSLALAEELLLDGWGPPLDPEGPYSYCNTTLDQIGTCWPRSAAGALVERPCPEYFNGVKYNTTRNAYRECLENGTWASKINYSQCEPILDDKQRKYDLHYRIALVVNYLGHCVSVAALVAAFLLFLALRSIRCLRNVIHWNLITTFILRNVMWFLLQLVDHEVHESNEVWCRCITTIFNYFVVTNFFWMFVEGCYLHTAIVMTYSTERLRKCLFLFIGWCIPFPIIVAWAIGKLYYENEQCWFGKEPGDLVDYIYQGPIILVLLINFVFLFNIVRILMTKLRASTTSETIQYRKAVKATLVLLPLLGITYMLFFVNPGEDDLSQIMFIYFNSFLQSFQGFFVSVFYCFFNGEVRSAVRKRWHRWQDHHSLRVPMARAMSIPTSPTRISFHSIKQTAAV
T3 sequence (P24387 whole entry): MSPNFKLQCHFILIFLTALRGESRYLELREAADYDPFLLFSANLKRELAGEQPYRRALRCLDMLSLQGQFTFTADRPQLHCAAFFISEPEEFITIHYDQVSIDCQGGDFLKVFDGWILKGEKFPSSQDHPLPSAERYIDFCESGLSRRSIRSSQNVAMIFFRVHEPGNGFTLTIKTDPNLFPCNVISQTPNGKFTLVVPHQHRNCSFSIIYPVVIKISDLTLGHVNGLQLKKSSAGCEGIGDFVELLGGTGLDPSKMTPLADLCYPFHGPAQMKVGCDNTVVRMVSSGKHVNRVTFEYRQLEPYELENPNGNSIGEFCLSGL

[5] = biological target: Ion channel NompC (Danio rerio, UniProt Q7T1G6); assay: Dose response cell-based high-throughput screening assay for agonists of the transient receptor potential channel N1 (TRPN1). [Related pubchem assays (depositor defined):AID1424, AID1448]; type: functional
[6] = biological target: T4, Probable nicotinate-nucleotide adenylyltransferase (Staphylococcus aureus (strain N315), UniProt P65502); type: functional, Staphylococcus aureus subsp. aureus N315;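 for IC50 Mean: confirmatory dose-response retesting of NadD inhibitor hits first found in an ultra-high-throughput screen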
[7] = biological target: Induced myeloid leukemia cell differentiation protein Mcl-1 (Homo sapiens, UniProt Q07820); type: functional
[8] = biological target: T4, Probable nicotinate-nucleotide adenylyltransferase; type: functional, Staphylococcus aureus subsp. aureus N315; conditions: read-out: IC50_Mean
[9] = biological target: T5, Low molecular weight phosphotyrosine protein phosphatase (Homo sapiens, UniProt P24666); type: functional; conditions: read-out: IC50_Mean;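 note: Dose-response confirmation assay measuring inhibition of LMPTP enzyme activity by fluorescence intensity read-out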
T5 sequence (P24666 whole entry): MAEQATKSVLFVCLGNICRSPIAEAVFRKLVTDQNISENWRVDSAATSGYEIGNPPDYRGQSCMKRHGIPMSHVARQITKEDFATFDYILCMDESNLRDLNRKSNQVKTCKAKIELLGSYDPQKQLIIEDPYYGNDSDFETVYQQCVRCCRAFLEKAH

[10] = biological target: T6, Runt-related transcription factor 1/Core-binding factor subunit beta (Homo sapiens, UniProt Q01196+Q13951); assay: Runt domain/CBFb-SMMHC interaction disruptors – biochemical, TR-FRET (AID 1438); type: protein assay
[11] = biological target: T6, Runt-related transcription factor 1/Core-binding factor subunit beta; assay: disruptors of Runt domain/CBFb-SMMHC interaction – biochemical, FRET, Cerulean-Runt, Venus-CBFb-SMMHC, uHTS, […] (AID 1434); type: protein assay
[12] = biological target: T7, Kappa-type opioid receptor (Homo sapiens, UniProt P41145); assay: kappa opioid receptor blockers, image-based, SAR follow-up (AID 2348); type: functional
[13] = biological target: T7, Kappa-type opioid receptor; assay: SAR analysis of small molecule agonists of the kappa opioid receptor via a luminescent beta-arrestin assay. [Related pubchem assays (depositor defined):AID1777, AID1786, AID1966, AID2133, AID2136, AID2348, AID2352, AID2357, AID2359, AID2370, AID2420, AID2478, AID2491, AID2492, AID2493, AID2497, AID2498, AID2500, AID449737, AID488822, AID488842]; type: functional
[14] = biological target: T8, Delta-type opioid receptor (Homo sapiens, UniProt P41143); assay: DOR agonists, SAR follow-up, image-based (AID 2370); type: functional
[15] = biological target: T8, Delta-type opioid receptor; assay: delta opioid receptor blockers – image-based, SAR follow-up (AID 2357); type: functional
[16] = biological target: T9, Mu-type opioid receptor (Homo sapiens, UniProt P35372); assay: mu opioid receptor activators, image-based, SAR follow-up (AID 2352); type: functional
[17] = biological target: T9, Mu-type opioid receptor; assay: mu opioid receptor blockers – image-based, SAR follow-up (AID 2420); type: functional;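 note: compounds added before stimulation of receptor with agonist DAMGO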
[18] = biological target: T10, Tyrosine-protein phosphatase non-receptor type 7 (Homo sapiens, UniProt P35236); type: functional
T10 sequence (P35236 whole entry): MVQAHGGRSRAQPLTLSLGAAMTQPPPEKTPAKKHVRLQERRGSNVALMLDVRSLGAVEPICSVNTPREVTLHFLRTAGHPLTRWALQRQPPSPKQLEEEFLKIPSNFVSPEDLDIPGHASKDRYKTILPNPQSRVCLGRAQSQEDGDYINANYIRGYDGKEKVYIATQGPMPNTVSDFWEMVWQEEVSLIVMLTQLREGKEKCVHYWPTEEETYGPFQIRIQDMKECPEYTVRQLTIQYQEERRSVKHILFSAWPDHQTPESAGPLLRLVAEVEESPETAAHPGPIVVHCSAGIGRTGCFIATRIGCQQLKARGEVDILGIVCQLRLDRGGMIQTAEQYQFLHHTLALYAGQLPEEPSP

[19] = biological target: T11, Tyrosine-protein phosphatase non-receptor type 22 (Homo sapiens, UniProt Q9Y2R2); type: functional
T11 sequence (Q9Y2R2 whole entry): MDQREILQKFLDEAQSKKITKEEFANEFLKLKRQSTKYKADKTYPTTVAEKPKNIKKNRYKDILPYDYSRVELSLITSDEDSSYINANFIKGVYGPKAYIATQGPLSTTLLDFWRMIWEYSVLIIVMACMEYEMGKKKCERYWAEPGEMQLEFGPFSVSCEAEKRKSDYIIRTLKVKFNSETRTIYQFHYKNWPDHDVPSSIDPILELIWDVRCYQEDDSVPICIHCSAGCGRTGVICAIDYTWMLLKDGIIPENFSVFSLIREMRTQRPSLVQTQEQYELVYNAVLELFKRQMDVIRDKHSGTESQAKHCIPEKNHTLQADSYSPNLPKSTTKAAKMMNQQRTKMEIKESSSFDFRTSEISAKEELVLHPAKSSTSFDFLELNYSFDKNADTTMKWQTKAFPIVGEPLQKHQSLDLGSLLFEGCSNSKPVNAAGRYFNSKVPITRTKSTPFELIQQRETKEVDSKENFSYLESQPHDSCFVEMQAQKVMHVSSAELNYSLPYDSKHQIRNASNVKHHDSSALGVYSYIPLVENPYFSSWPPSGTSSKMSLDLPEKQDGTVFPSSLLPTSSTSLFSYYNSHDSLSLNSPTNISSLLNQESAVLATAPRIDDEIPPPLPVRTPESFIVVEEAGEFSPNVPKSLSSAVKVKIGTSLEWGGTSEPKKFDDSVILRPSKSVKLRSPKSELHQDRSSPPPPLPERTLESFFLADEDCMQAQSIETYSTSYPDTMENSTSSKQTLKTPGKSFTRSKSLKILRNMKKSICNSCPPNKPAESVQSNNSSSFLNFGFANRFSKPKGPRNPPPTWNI

[20] = biological target: T11, Tyrosine-protein phosphatase non-receptor type 22; type: functional; remark: listed apart in the source

T6 sequence (Q01196 whole entry, the tested form may be a part): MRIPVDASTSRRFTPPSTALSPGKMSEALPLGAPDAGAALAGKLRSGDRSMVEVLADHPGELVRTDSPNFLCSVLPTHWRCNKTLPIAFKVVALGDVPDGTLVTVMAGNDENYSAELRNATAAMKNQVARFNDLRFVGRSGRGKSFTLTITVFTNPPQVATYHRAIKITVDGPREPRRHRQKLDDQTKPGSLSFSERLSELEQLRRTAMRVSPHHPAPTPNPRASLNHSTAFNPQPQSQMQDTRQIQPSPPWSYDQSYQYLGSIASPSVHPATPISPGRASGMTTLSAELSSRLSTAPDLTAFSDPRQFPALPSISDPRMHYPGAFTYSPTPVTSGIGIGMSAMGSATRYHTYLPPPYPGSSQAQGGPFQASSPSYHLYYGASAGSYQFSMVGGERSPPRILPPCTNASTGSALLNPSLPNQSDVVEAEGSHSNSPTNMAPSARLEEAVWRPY
T6 sequence (Q13951 whole entry, the tested form may be a part): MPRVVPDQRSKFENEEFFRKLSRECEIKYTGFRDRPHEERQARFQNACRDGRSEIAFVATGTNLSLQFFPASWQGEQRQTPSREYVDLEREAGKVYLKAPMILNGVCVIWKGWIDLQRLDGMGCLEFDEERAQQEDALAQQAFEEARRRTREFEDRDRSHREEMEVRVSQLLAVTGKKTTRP
T4 sequence (P65502 whole entry): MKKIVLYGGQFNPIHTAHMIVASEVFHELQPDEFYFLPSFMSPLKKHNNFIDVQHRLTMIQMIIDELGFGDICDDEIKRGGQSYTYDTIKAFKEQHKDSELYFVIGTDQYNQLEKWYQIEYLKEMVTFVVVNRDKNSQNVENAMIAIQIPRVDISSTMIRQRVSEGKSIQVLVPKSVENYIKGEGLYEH
T9 sequence (P35372 whole entry): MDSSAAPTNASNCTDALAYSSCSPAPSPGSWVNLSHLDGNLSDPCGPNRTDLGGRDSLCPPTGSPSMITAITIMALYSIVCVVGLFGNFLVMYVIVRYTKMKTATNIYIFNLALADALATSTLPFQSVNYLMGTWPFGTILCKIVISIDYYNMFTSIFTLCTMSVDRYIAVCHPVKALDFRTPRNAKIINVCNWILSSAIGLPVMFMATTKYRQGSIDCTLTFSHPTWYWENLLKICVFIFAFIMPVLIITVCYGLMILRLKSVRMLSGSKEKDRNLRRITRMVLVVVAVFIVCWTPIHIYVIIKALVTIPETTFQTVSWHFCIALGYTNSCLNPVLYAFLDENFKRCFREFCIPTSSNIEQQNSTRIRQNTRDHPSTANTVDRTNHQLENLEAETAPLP
T7 sequence (P41145 whole entry): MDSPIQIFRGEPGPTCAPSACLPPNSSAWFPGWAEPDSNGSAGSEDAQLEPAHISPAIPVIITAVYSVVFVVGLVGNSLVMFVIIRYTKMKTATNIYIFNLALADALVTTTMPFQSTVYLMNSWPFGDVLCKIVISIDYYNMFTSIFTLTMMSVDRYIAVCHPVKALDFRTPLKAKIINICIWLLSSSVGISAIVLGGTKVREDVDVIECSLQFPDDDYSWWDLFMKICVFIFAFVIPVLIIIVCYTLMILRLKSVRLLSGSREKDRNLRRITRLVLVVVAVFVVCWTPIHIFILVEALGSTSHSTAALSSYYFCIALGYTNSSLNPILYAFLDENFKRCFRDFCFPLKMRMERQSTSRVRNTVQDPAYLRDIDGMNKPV
T8 sequence (P41143 whole entry): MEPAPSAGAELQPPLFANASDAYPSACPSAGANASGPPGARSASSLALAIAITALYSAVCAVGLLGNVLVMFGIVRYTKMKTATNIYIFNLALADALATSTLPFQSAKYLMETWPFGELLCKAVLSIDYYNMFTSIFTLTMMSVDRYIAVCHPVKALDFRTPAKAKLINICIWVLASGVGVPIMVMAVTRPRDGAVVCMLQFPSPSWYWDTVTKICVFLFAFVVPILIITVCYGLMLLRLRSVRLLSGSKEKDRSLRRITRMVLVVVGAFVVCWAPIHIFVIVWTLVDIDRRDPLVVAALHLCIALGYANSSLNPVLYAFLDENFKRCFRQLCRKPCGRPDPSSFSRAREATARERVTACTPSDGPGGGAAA
Sequence of Mucolipin-3 (Q8TDD5 whole entry, the tested form may be a part): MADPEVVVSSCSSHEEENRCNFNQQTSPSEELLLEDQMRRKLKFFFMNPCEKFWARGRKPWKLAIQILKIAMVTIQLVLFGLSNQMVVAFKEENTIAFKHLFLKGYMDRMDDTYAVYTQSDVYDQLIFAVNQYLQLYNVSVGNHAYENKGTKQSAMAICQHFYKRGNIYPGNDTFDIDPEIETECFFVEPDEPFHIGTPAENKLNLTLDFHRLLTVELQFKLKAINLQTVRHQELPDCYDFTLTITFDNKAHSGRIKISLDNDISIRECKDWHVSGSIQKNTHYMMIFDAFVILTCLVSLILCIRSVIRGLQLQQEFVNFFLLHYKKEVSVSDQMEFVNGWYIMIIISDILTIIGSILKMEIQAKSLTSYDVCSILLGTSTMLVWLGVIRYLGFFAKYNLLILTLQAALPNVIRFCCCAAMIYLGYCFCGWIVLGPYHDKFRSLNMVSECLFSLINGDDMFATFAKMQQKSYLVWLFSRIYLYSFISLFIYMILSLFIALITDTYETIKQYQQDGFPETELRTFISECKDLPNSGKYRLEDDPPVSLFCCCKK
Sequence of Induced myeloid leukemia cell differentiation protein Mcl-1 (Q07820 whole entry): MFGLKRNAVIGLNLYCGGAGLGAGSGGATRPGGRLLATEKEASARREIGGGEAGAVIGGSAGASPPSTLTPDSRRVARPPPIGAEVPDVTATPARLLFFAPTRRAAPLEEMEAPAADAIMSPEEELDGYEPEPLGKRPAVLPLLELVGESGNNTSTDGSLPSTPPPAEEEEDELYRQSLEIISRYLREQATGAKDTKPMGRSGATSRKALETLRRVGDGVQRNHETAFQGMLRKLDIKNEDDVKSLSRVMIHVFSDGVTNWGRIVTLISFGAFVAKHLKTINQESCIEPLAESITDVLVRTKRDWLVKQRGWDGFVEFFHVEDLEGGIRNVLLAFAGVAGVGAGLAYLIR
Sequence of Ion channel NompC (Q7T1G6 whole entry): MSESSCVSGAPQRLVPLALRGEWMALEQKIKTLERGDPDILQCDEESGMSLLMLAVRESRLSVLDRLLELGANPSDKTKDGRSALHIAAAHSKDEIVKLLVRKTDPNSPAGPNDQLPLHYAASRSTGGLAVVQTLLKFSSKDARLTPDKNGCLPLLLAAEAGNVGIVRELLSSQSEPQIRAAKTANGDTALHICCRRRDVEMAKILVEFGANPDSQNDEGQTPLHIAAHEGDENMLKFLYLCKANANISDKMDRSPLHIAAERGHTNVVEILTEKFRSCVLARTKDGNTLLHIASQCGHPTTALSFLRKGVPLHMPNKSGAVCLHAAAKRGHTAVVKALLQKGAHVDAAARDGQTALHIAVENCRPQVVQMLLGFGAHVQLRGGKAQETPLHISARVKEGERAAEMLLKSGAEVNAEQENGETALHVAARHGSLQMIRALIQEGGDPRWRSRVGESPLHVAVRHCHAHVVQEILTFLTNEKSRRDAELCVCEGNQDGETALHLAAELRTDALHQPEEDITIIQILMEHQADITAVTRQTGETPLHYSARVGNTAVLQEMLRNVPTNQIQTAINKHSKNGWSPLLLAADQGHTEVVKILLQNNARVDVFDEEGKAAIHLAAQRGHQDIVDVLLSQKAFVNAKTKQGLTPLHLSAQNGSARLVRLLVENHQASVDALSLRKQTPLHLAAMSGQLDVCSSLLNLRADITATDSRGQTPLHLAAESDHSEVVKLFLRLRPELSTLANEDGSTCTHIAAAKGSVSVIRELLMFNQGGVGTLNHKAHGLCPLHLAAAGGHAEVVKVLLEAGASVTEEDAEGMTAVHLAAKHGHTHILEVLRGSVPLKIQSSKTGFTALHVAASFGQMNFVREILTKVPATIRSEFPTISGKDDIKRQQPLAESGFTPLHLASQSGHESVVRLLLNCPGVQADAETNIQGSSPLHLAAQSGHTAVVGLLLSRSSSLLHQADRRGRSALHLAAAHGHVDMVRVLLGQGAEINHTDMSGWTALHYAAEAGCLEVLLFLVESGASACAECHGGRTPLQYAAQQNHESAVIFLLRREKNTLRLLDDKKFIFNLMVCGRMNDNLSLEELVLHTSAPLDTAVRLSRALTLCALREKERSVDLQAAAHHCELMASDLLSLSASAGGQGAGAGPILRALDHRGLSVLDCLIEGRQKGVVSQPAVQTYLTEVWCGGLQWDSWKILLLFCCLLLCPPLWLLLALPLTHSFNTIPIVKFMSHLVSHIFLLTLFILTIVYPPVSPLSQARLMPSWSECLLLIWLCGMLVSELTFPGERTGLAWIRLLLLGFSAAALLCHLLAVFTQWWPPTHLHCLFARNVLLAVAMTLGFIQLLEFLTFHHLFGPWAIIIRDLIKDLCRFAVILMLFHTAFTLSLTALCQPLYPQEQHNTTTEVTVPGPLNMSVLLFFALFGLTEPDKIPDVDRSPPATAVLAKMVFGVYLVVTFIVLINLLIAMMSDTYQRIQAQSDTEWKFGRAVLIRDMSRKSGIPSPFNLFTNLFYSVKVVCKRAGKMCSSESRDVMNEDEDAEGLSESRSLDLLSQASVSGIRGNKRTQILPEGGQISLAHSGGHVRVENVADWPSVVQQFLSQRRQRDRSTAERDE

For `Nc1c(C(=O)c2ccc(Cl)cc2)sc2nsc(SCCN3CCOCC3)c12`, the EC50 [1] was 74.2 µM (inconclusive), the EC50 [2] was > 9.97 µM (not active) and the EC50 [3] was > 300 µM (not active). The EC50 [4] was 9.14 µM (active) and the EC50 [5] was > 9.97 µM (inactive).

For `Oc1nc(C(Cl)Cl)nc2sc3c(c12)CCN(Cc1ccccc1)C3`, the IC50 [6] was 9.04 µM (active), the IC50 [7] was 3.75 µM (not active) and the EC50 [4] was > 53 µM (inactive). The IC50 [8] was 18.7 µM (active), the IC50 [9] was 7.87 µM (active) and the IC50 [10] was 13.4 µM (active). For the same compound, the IC50 [11] was 2.89 µM (active).

In the case of `COc1ccc(CN(Cc2ccccn2)C(=O)CN2C(=O)COc3ccccc32)cc1`, the IC50 [12] is reported as > 32 µM (inactive), the EC50 [13] is reported as > 10 µM (inactive) and the EC50 [14] is reported as > 32 µM (inactive). The IC50 [15] was > 32 µM (inactive), the EC50 [16] was > 32 µM (inactive) and the IC50 [17] was > 32 µM (inactive).

`CCCC(=O)NCCc1cc2ccc(C)c(C)c2nc1O` was tested, and the IC50 [18] was > 79.4 µM (inactive), the IC50 [19] was > 79.4 µM (inactive) and the IC50 [20] was > 79.4 µM (inactive).
